Data: the NIST ThermoML archive (doi:10.1007/s10765-005-5571-9)

Legend:
[1] = xn = mol fraction of the nth substance listed; settings: 298 K, 101.3 kPa, Liquid
[2] = 298.15 K; 101.3 kPa; Liquid

C=C(C)C(=O)OC [methyl methacrylate] + CC(=O)OCCC(C)C
Settings	mass density [kg/m3]
[1], x2 = 0	937.628

C=CC(=O)OCCCC [butyl 2-propenoate]
Settings	mass density [kg/m3]
[2]	893.947

CC(=O)OCCC(C)C [3-methylbutyl ethanoate] + C=Cc1ccccc1
[1]
Settings	mass density [kg/m3]
x1 = 0.0293	900.833
x1 = 0.0529	899.946
x1 = 0.0997	898.18
x1 = 0.1502	896.274
x1 = 0.2	894.422
x1 = 0.2502	892.59
x1 = 0.3064	890.541
x1 = 0.3509	888.929
x1 = 0.4042	887.046
x1 = 0.4508	885.398
x1 = 0.5011	883.646
x1 = 0.5571	881.719
x1 = 0.6002	880.257
x1 = 0.6507	878.546
x1 = 0.7003	876.895
x1 = 0.7514	875.198
x1 = 0.7999	873.614
x1 = 0.8507	871.983
x1 = 0.9005	870.41
x1 = 0.9499	868.881
x1 = 0.9747	868.119
x1 = 1	867.356

C=Cc1ccccc1 [styrene]
Settings	mass density [kg/m3]
[2]	901.941

CC(=O)OCCC(C)C [3-methylbutyl ethanoate] + C=CC(=O)OCC
Settings	mass density [kg/m3]
[1], x1 = 1	867.356

C=C(C)C(=O)OC [methyl methacrylate]
Settings	mass density [kg/m3]
[2]	937.628

CC(=O)OCCC(C)C [3-methylbutyl ethanoate]
Settings	mass density [kg/m3]
[2]	867.356

C=CC(=O)OCC [ethyl propenoate] + CC(=O)OCCC(C)C
[1]
Settings	mass density [kg/m3]
x2 = 0	916.124
x2 = 0.031	913.999
x2 = 0.0501	912.721
x2 = 0.0999	909.503
x2 = 0.1505	906.326
x2 = 0.2012	903.286
x2 = 0.2501	900.442
x2 = 0.301	897.604
x2 = 0.3512	894.897
x2 = 0.402	892.257
x2 = 0.4505	889.84
x2 = 0.501	887.406
x2 = 0.5502	885.117
x2 = 0.6002	882.87
x2 = 0.6518	880.634
x2 = 0.7001	878.602
x2 = 0.7499	876.582
x2 = 0.8008	874.573
x2 = 0.8514	872.644
x2 = 0.9001	870.846
x2 = 0.9503	869.055
x2 = 0.9752	868.197

C=CC(=O)OCCCC [butyl 2-propenoate] + CC(=O)OCCC(C)C
[1]
Settings	mass density [kg/m3]
x2 = 0	893.947
x2 = 0.0257	893.222
x2 = 0.0496	892.552
x2 = 0.1035	891.059
x2 = 0.1504	889.769
x2 = 0.2	888.407
x2 = 0.2504	887.04
x2 = 0.2999	885.689
x2 = 0.3512	884.304
x2 = 0.4001	882.985
x2 = 0.4521	881.596
x2 = 0.5	880.304
x2 = 0.55	878.984
x2 = 0.6	877.664
x2 = 0.65	876.356
x2 = 0.7003	875.048
x2 = 0.7502	873.751
x2 = 0.7998	872.467
x2 = 0.85	871.176
x2 = 0.9	869.889
x2 = 0.95	868.618
x2 = 0.9752	867.98

C=CC(=O)OCC [ethyl propenoate]
Settings	mass density [kg/m3]
[2]	916.124

CC(=O)OCCC(C)C [3-methylbutyl ethanoate] + C=CC(=O)OCCCC
Settings	mass density [kg/m3]
[1], x1 = 1	867.356

C=Cc1ccccc1 [styrene] + CC(=O)OCCC(C)C
Settings	mass density [kg/m3]
[1], x2 = 0	901.941

CC(=O)OCCC(C)C [3-methylbutyl ethanoate] + C=C(C)C(=O)OC
[1]
Settings	mass density [kg/m3]
x1 = 0.0263	934.984
x1 = 0.0515	932.526
x1 = 0.1007	927.871
x1 = 0.1599	922.52
x1 = 0.2002	919.025
x1 = 0.25	914.86
x1 = 0.3053	910.408
x1 = 0.3502	906.93
x1 = 0.4005	903.17
x1 = 0.4504	899.578
x1 = 0.5005	896.102
x1 = 0.5502	892.767
x1 = 0.6005	889.513
x1 = 0.6538	886.188
x1 = 0.7003	883.384
x1 = 0.7508	880.451
x1 = 0.8003	877.66
x1 = 0.85	874.956
x1 = 0.9002	872.311
x1 = 0.9499	869.798
x1 = 0.9751	868.558
x1 = 1	867.356
